The text below walks through data of PubChem BioAssay (NCI).

Test systems include DU-145 prostate; EKVX NSCLC; HOP-92 NSCLC; LOX IMVI melanoma; MDA-MB-435; NCI-H226 lung; OVCAR-3 ovarian; OVCAR-8 ovarian; RPMI-8226 leukemia; SF-539 CNS.
Assay in all cases: growth of human tumour cells (NCI), 48 h

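Assay format: 96-well plates, 48-hour exposure. TGI denotes the concentration required for complete inhibition of growth.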

As for `S=C(Nc1ccc2cn[nH]c2c1)Nc1ccc2cn[nH]c2c1`, the TGI in the assay on DU-145 prostate, in the assay on EKVX NSCLC, in the assay on HOP-92 NSCLC, in the assay with LOX IMVI melanoma, in the assay on MDA-MB-435 and in the assay on NCI-H226 lung was greater than 100 µM each time. Besides, the TGI with OVCAR-3 ovarian, in the assay with OVCAR-8 ovarian, in the assay on RPMI-8226 leukemia and with SF-539 CNS was greater than 100 µM in each case.
For the molecule `O=C(Nc1ccccc1)c1cc(S(=O)(=O)N2CCNNC2=O)c(S)cc1Cl`, the TGI in the assay on DU-145 prostate, in the assay with EKVX NSCLC, in the assay on HOP-92 NSCLC, with LOX IMVI melanoma, with MDA-MB-435 and with NCI-H226 lung was greater than 100 µM in each case. The TGI in the assay with OVCAR-3 ovarian, with OVCAR-8 ovarian, in the assay on RPMI-8226 leukemia and in the assay on SF-539 CNS was greater than 100 µM throughout.
Regarding `O=C1C(CN2CCOCC2)CCCC1CN1CCOCC1` (stereo not given), the TGI with DU-145 prostate came out at 31.1 µM; in the assay with EKVX NSCLC, 10.7 µM; in the assay with HOP-92 NSCLC, 1.97 µM; in the assay with LOX IMVI melanoma it was 8.98 µM; with MDA-MB-435, 27.5 µM; in the assay with NCI-H226 lung, 40.3 µM. Also, the TGI with OVCAR-3 ovarian was found to be 8.21 µM; with OVCAR-8 ovarian it was 9.31 µM; with RPMI-8226 leukemia it was 2.34 µM; in the assay on SF-539 CNS, 7.45 µM.
As to `COC(=O)c1ccc(Nc2nc3nc[nH]c3c(=O)[nH]2)cc1`, the TGI with DU-145 prostate, with EKVX NSCLC, in the assay on HOP-92 NSCLC, in the assay with LOX IMVI melanoma, in the assay on MDA-MB-435 and in the assay with NCI-H226 lung was greater than 100 µM in each case. In addition, the TGI in the assay on OVCAR-3 ovarian, in the assay on OVCAR-8 ovarian, in the assay on RPMI-8226 leukemia and in the assay on SF-539 CNS was greater than 100 µM throughout.
Regarding `COc1cc(C2c3cc4c(cc3OC(N3CCNCC3)C2C)OCO4)cc(OC)c1OC` (stereo not given), the TGI was greater than 28.5 µM in the assay with DU-145 prostate; greater than 100 µM in the assay with EKVX NSCLC; 24.8 µM in the assay with HOP-92 NSCLC; 19 µM in the assay with LOX IMVI melanoma; 1.1 µM in the assay with MDA-MB-435; 8.78 µM with NCI-H226 lung. Besides, the TGI with OVCAR-3 ovarian is 0.512 µM; in the assay on OVCAR-8 ovarian it was greater than 37.8 µM; with RPMI-8226 leukemia it was 17.3 µM; with SF-539 CNS, 1.94 µM.
On to `C(=C\N1CCCCC1)/c1nnnn1-c1ccccc1`, for which the TGI in the assay on DU-145 prostate is greater than 100 µM; in the assay on EKVX NSCLC, 63.1 µM; in the assay with HOP-92 NSCLC it was greater than 100 µM; with LOX IMVI melanoma it was 50.9 µM; with MDA-MB-435, 66.1 µM; with NCI-H226 lung, greater than 100 µM. In addition, the TGI in the assay with OVCAR-3 ovarian stood at 90.6 µM; in the assay on OVCAR-8 ovarian, 95 µM; in the assay with RPMI-8226 leukemia it was 59.6 µM; in the assay with SF-539 CNS, 76.6 µM.
In the case of `CCN(CC)c1ccc2cc(C(=O)Nc3ccccn3)c(=N)oc2c1`, the TGI in the assay on DU-145 prostate, in the assay on EKVX NSCLC, with HOP-92 NSCLC, with LOX IMVI melanoma, in the assay with MDA-MB-435 and with NCI-H226 lung was greater than 100 µM each time. The TGI in the assay with OVCAR-3 ovarian, with OVCAR-8 ovarian, in the assay on RPMI-8226 leukemia and with SF-539 CNS was greater than 100 µM each time.
`COc1cc(N(Cc2ccc3oc(=O)c(-c4ccccc4)nc3c2)Cc2ccc3oc(=O)c(-c4ccccc4)nc3c2)cc(OC)c1OC`: the TGI in the assay on DU-145 prostate, with EKVX NSCLC, with HOP-92 NSCLC, with LOX IMVI melanoma, with MDA-MB-435 and with NCI-H226 lung was greater than 10 µM each time. The TGI in the assay with OVCAR-3 ovarian, in the assay with OVCAR-8 ovarian, with RPMI-8226 leukemia and in the assay with SF-539 CNS was greater than 10 µM each time.
For the molecule `CCOC(=O)Oc1ccc2c(c1)c(=O)c1c(NCCN(CC)CC)ccc3nnn2c31`, the TGI with DU-145 prostate is 8.29 µM; in the assay with EKVX NSCLC, 19.9 µM; in the assay with HOP-92 NSCLC, 21.4 µM; in the assay with LOX IMVI melanoma it was 4.16 µM; with MDA-MB-435, 16.4 µM; with NCI-H226 lung, 7.71 µM. For the same molecule, the TGI was 19.7 µM in the assay with OVCAR-3 ovarian, 14.3 µM in the assay on OVCAR-8 ovarian, 4.86 µM in the assay with RPMI-8226 leukemia and 13.5 µM with SF-539 CNS.
Consider `O=C1Nc2ccccc2/C1=c1\[nH]c(=O)/c(=C\c2ccc(OCc3ccccc3)cn2)[nH]c1=O`, for which the TGI in the assay on DU-145 prostate is greater than 100 µM; with EKVX NSCLC, greater than 100 µM; with HOP-92 NSCLC, 76.8 µM; with LOX IMVI melanoma, greater than 100 µM; in the assay on MDA-MB-435, greater than 100 µM; in the assay on NCI-H226 lung it was greater than 100 µM. Also, the TGI is greater than 100 µM in the assay with OVCAR-3 ovarian, greater than 100 µM in the assay on OVCAR-8 ovarian, greater than 100 µM with RPMI-8226 leukemia and 55.5 µM in the assay with SF-539 CNS.
For the molecule `CC(C)(C)N(Cc1ccc2c(c1)OCO2)C(=O)/C=C\Sc1ccccc1`, the TGI is greater than 100 µM in the assay on DU-145 prostate; greater than 100 µM in the assay on EKVX NSCLC; 91 µM in the assay with HOP-92 NSCLC; greater than 100 µM in the assay with LOX IMVI melanoma; greater than 100 µM in the assay on MDA-MB-435; greater than 100 µM in the assay with NCI-H226 lung. For the same molecule, the TGI with OVCAR-3 ovarian, in the assay with OVCAR-8 ovarian, with RPMI-8226 leukemia and with SF-539 CNS was greater than 100 µM throughout.
`CC(=N\N)/C(C)=N/N=C(C)/C(C)=N/N=C(C)/C(C)=N/N`: the TGI in the assay on DU-145 prostate, in the assay with EKVX NSCLC, in the assay on HOP-92 NSCLC, in the assay on LOX IMVI melanoma, with MDA-MB-435 and in the assay on NCI-H226 lung was greater than 100 µM each time. The TGI in the assay on OVCAR-3 ovarian, with OVCAR-8 ovarian, in the assay with RPMI-8226 leukemia and with SF-539 CNS was greater than 100 µM each time.
`COc1cc(C2c3cc4c(cc3OC(NCCO)C2C)OCO4)cc(OC)c1OC` (stereo not given): the TGI with DU-145 prostate is greater than 100 µM; in the assay with EKVX NSCLC, greater than 100 µM; in the assay on HOP-92 NSCLC, 93 µM; in the assay with LOX IMVI melanoma, greater than 100 µM; in the assay with MDA-MB-435, 0.463 µM; in the assay with NCI-H226 lung it was 9.84 µM. Besides, the TGI is 0.603 µM in the assay with OVCAR-3 ovarian, greater than 100 µM with OVCAR-8 ovarian, greater than 34 µM with RPMI-8226 leukemia and 0.635 µM in the assay with SF-539 CNS.
With `CCc1nc2ccc(NCCN(C)C)c3c(=O)c4ccccc4n1c23`, the TGI in the assay on DU-145 prostate was 3.4 µM; with EKVX NSCLC, 6.78 µM; in the assay with HOP-92 NSCLC it was 5.26 µM; in the assay on LOX IMVI melanoma it was 2.63 µM; in the assay with MDA-MB-435, 2.4 µM; in the assay on NCI-H226 lung, 4.34 µM. Also, the TGI in the assay on OVCAR-3 ovarian worked out at 4.45 µM; in the assay on OVCAR-8 ovarian, 4.76 µM; with RPMI-8226 leukemia, 7.78 µM; with SF-539 CNS, 15 µM.
